The values that follow come from PubChem BioAssay AID1996.

Values after ≈ are worked out from the molar mass of the structure shown. Some results are limits rather than exact numbers.

The conditions of this data set: buffer; pH 7.4; 200.0 µM.
Take `CCCC(=O)NCc1ccccc1Cl`: the kinetic solubility (in general, the concentration staying in solution when a stock, usually in DMSO, is diluted into the medium) was 30.2 µg/mL (≈ 143 µM).

`COc1cccc(/C=C/C(=O)N2CCN(c3ccccn3)CC2)c1`: the solubility (kinetic) is greater than 48.5 µg/mL. As for `CN(CCO)c1nc(N)c(C#N)c(CC#N)c1C#N`, the kinetic solubility is greater than 38.4 µg/mL. To `Fc1ccc(-c2csc(Nc3ccccn3)n2)cc1` belongs 0.6 µg/mL (≈ 2.21 µM); to `Cc1c(NC(=O)c2ccc(-c3ccccc3)cc2)cccc1C(=O)O`, 42.3 µg/mL (≈ 128 µM); to `Cn1cccc1/C=C(\C#N)C(N)=S`, 28.1 µg/mL (≈ 147 µM). The figure for `O=C(Nc1ccc2ccccc2c1)c1cccc(F)c1` is 1.3 µg/mL (≈ 4.9 µM); for `C/C(CC(=O)NCCN1CCOCC1)=N\NC(=O)c1ccncc1` it is greater than 50 µg/mL. To `COc1ccc(NC(=O)C2CCCCC2)cc1S(=O)(=O)N1CCOCC1` belongs 51.6 µg/mL (≈ 135 µM); to `O=C(Nc1ccc2oc(-c3ccncc3)nc2c1)c1ccc(F)cc1`, 0.9 µg/mL (≈ 2.7 µM); to `Cn1c(=S)oc2ccccc21`, 14.9 µg/mL (≈ 90.2 µM).

`O=C(COC(=O)c1cccnc1Cl)NCCc1ccccc1` yielded a solubility (kinetic) greater than 47.8 µg/mL. `COc1ccc(NC(=O)C2=C(C)NC(=O)NC2c2ccccc2[N+](=O)[O-])cc1` (stereo not given) yielded a kinetic solubility of 57.1 µg/mL (≈ 149 µM). To `N#C/C=C/N1CCC(Cc2ccccc2)CC1` belongs 29.6 µg/mL (≈ 131 µM); to `Cc1nc(C)n(C)c(=O)c1-c1ccccc1`, greater than 32.1 µg/mL; to `CNC(=S)SCCOc1ccccc1`, 17.5 µg/mL (≈ 77 µM). Compound `COc1cccc(CNC(=O)c2cccnc2Sc2ccccc2)c1` registered a solubility (kinetic) of 5.6 µg/mL (≈ 16 µM). The figure for `COc1ccc(N2C(=O)[C@@H]3C(c4cccnc4)=NO[C@@H]3C2=O)cc1` is 45 µg/mL (≈ 139 µM); for `CCOc1cccc(C(=O)NC2=NCCS2)c1` it is 26.1 µg/mL (≈ 104 µM). To `COc1ccc(OC)c(S(=O)(=O)Nc2cc(C)on2)c1` belongs greater than 44.7 µg/mL.

In turn, `O=C(CN1C(=O)c2ccccc2S1(=O)=O)c1ccc(O)c(O)c1` registered a kinetic solubility greater than 50 µg/mL.

For `O=C(O)c1cccnc1C(=O)c1ccccc1`, the kinetic solubility is 31.9 µg/mL (≈ 140 µM).

For the compound `CN(C)c1c(F)cc(C(=O)NC(=O)NCc2cccnc2)cc1F`, the kinetic solubility turned out to be 4 µg/mL (≈ 12 µM). To `CCCn1c(SCC(=O)N2CCOCC2)nnc1-c1ccncc1` belongs greater than 52.1 µg/mL; to `N#Cc1ccccc1OCC(=O)C1CC1`, 28.4 µg/mL (≈ 141 µM); to `COc1cccc2c1CCc1c-2nc2ccccc2c1C(=O)O`, greater than 45.8 µg/mL. The figure for `Cn1c2c(c(=O)n(C)c1=O)C(c1cccc(F)c1)C(C#N)=C(N)O2` (stereo not given) is 45.5 µg/mL (≈ 139 µM); for `Cc1ccc(CN2CCC(CO)(CC3CCCCO3)CC2)o1` (stereo not given) it is greater than 46.1 µg/mL; for `O=C(COC(=O)COc1ccccc1)Nc1ccc(Br)cc1F` it is 12.3 µg/mL (≈ 32.2 µM). `COc1ccc(-n2nc(C)cc2Nc2ccccc2C(=O)O)cc1` gave a solubility (kinetic) greater than 48.5 µg/mL. Take `Cl.c1ccc(CN2CCNCC2)nc1`: the solubility (kinetic) was found to be 30.1 µg/mL. To `O=C(c1ccncc1)N1CCN(CCc2ccccc2)CC1` belongs greater than 44.3 µg/mL.

Consider `Cc1ccc(CNC(=O)CSc2nc3ccccc3c(=O)n2CC2CCCO2)cc1` (stereo not given), for which the solubility (kinetic) stood at 4.5 µg/mL (≈ 10.6 µM). The figure for `Cc1cccc(OCC(=O)N2CCCc3ccccc32)c1` is 30.3 µg/mL (≈ 108 µM). The figure for `CCn1c(CNC(=O)C23CC4CC(CC(C4)C2)C3)nnc1SC` is greater than 50.2 µg/mL; for `COc1ccc(Br)c(C(=O)OCC(=O)N2CCc3ccccc32)c1` it is 2.3 µg/mL (≈ 5.89 µM); for `CCCN1CCC(NC(=O)C2CCCCC2C(=O)O)CC1` (stereo not given) it is greater than 44.5 µg/mL. `O=S(=O)(NCCc1ccccc1)c1cccs1`: the solubility (kinetic) amounted to 34 µg/mL (≈ 127 µM).

In turn, `COc1cc2c(cc1OC)-c1cc(Nc3cccc(C)c3)nc(=O)n1CC2` yielded a solubility (kinetic) of 2.5 µg/mL (≈ 6.88 µM). As for `COc1cc(OC)cc(C(=O)Nc2ccc(N(C)C)c3ccccc23)c1`, the kinetic solubility was less than 0.4 µg/mL. The figure for `Cc1ccc(C(=O)Nc2ccccc2N2CCCC2)cc1` is 31.4 µg/mL (≈ 112 µM); for `COc1cccc2cc(C(=O)Nc3ccccc3C)/c(=N/O)oc12` it is 4.6 µg/mL (≈ 14.2 µM). `O=C(CN1C(=O)c2cccc3cccc1c23)NC1CCCC1`: the kinetic solubility stood at 4.4 µg/mL (≈ 14.9 µM). In the case of `Cc1ccc(N=C2C(=O)Nc3ccccc32)c(C)c1`, the solubility (kinetic) came to 28.8 µg/mL (≈ 115 µM). The figure for `O=C(O)CC1(CC(=O)Nc2ccccc2N2CCOCC2)CCCC1` is greater than 52 µg/mL.

Compound `Cn1c(=NC(=O)COc2ccccc2)sc2ccccc21` came in with a kinetic solubility of 0.8 µg/mL (≈ 2.68 µM). The figure for `OCC1(CC2CCCCO2)CCN(Cc2cccc(O)c2)CC1` (stereo not given) is 47.3 µg/mL (≈ 148 µM); for `Fc1ccc(NCc2nnc3n2CCCCC3)cc1` it is greater than 39 µg/mL; for `O=C(NCCCCc1ccccc1)C1CCCC1` it is 33.1 µg/mL (≈ 135 µM).

`CC(NCc1ccccc1)c1ccccc1O` (stereo not given) had a kinetic solubility of 27.2 µg/mL (≈ 120 µM). The figure for `COc1ccc(Nc2oc(-c3ccc(F)cc3)nc2C#N)cc1` is less than 0.2 µg/mL. The compound `Cc1cccc(C)c1OCCN1C(=O)NC(C)(c2ccccc2)C1=O` (stereo not given) had a solubility (kinetic) of 5 µg/mL (≈ 14.8 µM). On to `CN(C)C(CNC(=O)c1ccc([N+](=O)[O-])cc1Cl)c1ccco1` (stereo not given), for which the solubility (kinetic) is greater than 50.7 µg/mL. The figure for `CC1CCN(CCC(=O)N/N=C/c2ccc([N+](=O)[O-])cc2)CC1` is greater than 47.8 µg/mL. To `NC(=O)CSc1nc(-c2ccccc2)nc2ccccc12` belongs 0.7 µg/mL (≈ 2.37 µM); to `COc1cc2cc(NC(C)=O)cc(NCc3ccccc3)c2cc1OC`, 4.2 µg/mL (≈ 12 µM). Turning to `CC(C)(C)C(=O)CN1C(=O)NC2(CCCc3ccccc32)C1=O` (stereo not given), the solubility (kinetic) is greater than 47.2 µg/mL. To `CC(OC(=O)CN1C(=O)c2ccccc2C1=O)C(=O)NC1CCCC1` (stereo not given) belongs greater than 51.7 µg/mL.

For the compound `C=CCOn1c(=O)c(-c2ccc(OCC)cc2)[n+]([O-])c2ccccc21`, the solubility (kinetic) is 6.3 µg/mL (≈ 18.6 µM). The compound `Cc1nc2ccccc2c(=O)n1CCCN1CCOCC1` showed a kinetic solubility greater than 43.1 µg/mL. To `Cc1cccc(N2CC(C(=O)Nc3ccccc3N3CCOCC3)CC2=O)c1C` (stereo not given) belongs greater than 59 µg/mL; to `COC(=O)c1ccc(CO/N=C/c2ccccc2OC)cc1`, 2.6 µg/mL (≈ 8.69 µM); to `Cc1cc(C)cc(NC(=O)NCC(O)COc2ccc([N+](=O)[O-])cc2)c1` (stereo not given), 6.1 µg/mL (≈ 17 µM). Compound `O=C(Nc1ccc(Cl)cc1)Nc1ccc(-c2cnco2)cc1` returned a solubility (kinetic) of 0.7 µg/mL (≈ 2.23 µM). To `O=C(CC(c1ccccc1)c1ccccc1)NCCOCc1ccccc1` belongs 20.1 µg/mL (≈ 55.9 µM); to `O=c1ccnc(SCCc2ccc([N+](=O)[O-])cc2)[nH]1`, 21.6 µg/mL (≈ 77.9 µM); to `CN(C)C(=O)c1ccc(=O)n(Cc2ccc(Cl)cc2Cl)c1`, greater than 48.8 µg/mL. To `O=C(O)Cn1cc(/C=N/Nc2ccc([N+](=O)[O-])cn2)c2ccccc21` belongs greater than 50.9 µg/mL; to `O=[N+]([O-])c1cccc(CN2CCC(Cc3ccccc3)CC2)c1`, 17.3 µg/mL (≈ 55.7 µM); to `COc1ccccc1-n1cc(-c2ccccc2)[nH]c1=S`, 3 µg/mL (≈ 10.6 µM). The figure for `CCC1Oc2ccccc2N(CC(=O)NC2CC2)C1=O` (stereo not given) is greater than 41.1 µg/mL; for `CCn1c(C)c(CS(=O)(=O)c2ccccc2)[nH]c1=O` it is 9.8 µg/mL (≈ 35 µM). `CCc1nnc(NC(=O)C2CC(=O)N(Cc3ccccc3)C2)s1` (stereo not given) returned a solubility (kinetic) greater than 49.6 µg/mL. To `Cc1ccc(-c2c(NC(=O)C(C)C)n(C)c3ccccc3c2=O)cc1` belongs 29.4 µg/mL (≈ 87.9 µM). Take `Cc1nc(NC(=O)CCl)sc1C(=O)N(C)C`: the kinetic solubility was greater than 39.3 µg/mL.
